Our source for the Kd and EC50 values is patent publication US20070269420A1, “Compounds, Compositions and Methods for Treatment and Prophylaxis of Hepatitis C Viral Infections and Associated Diseases” (priority 2003, published 2007).

The target of one assay is T1, HCV NS4B (Hepatitis C virus genotype 1b, UniProt Q9WMX2).
T1 construct: NS4B was cloned, expressed and purified to establish an assay; made in house
Description: NS4B binding assay (quenching of intrinsic protein fluorescence). The source says:
NS4B was cloned, expressed and purified to establish an assay, which takes advantage of the intrinsic fluorescent properties of proteins and identifies compounds, which inhibit by a NS4B specific mechanism. This protein is necessary for viral replication. It is thought to act as an anchor securing the replication complex to cellular membranes, where replication is known to occur. Several other functions necessary for viral replication have also ascribed to NS4B.

Assay [1] has as its system HCV replicon (BB7 sequence) in Huh-7-Clone A cells. Description: HCV replicon NS5A ELISA, inhibition of viral RNA replication. The format is cell-based, hepatitis C virus. Conditions: Hepatitis C virus, read-out: ELISA EC50. As for the experimental part: Antiviral activity of representative compounds of the invention was evaluated in a human liver-derived cell line (Huh-7-Clone A) containing the HCV replicon (BB7 sequence) (See Lohmann et al. Science. 1999, 285:110-3; Blight K J et al., Science. 2000, 290:1972-4; Pietschmann, T. et al., J. Virol. 2001, 73:1252-1264; and Lohmann, V. et al., J. Virol. 2001, 75:1437-1449). The HCV replicon is a subgenomic viral RNA that expresses the HCV proteins required for its own replication. These proteins include non-structural proteins NS3, NS4A, NS4B, NS5A and NS5B. The replicon also contains a foreign gene encoding a drug-selectable marker (neomycin phosphotransferase) to allow for G418 (neomycin) selection of cells that contain the replicon.
An ELISA (enzyme-linked immunosorbant assay) was used to determine the effect of compounds within the scope of the invention on the amount of HCV NS5A protein produced after a 72-hour incubation of the replicon-containing cells in the presence of varying concentrations of compound. Huh7-Clone A cells were seeded in 96-well plates at a subconfluent density (9000 cells/well) in medium containing 2% FBS and incubated for 4 hours to allow attachment to occur. HCV-086 (solubilized with 100% dimethylsulfoxide [DMSO]) was added to wells using an 8-point, 3-fold serial dilution series, with a final DMSO concentration of 1% in a total volume of 200 μL. Plates were incubated for 72 hours at 37° C. and 5% CO2. Under these conditions, the cells are approximately 25% confluent at the time of seeding and 80-90% confluent on day 3. COSTAR® 96-well cell culture plates were used but other known cell culture plates may be used. After incubation, media is removed from wells and the cells are fixed to the assay plate using 0.05% glutaraldehyde (Fisher # 02957-4). The glutaraldehyde is then washed off using phosphate-buffered saline (PBS) following a 1 hour incubation and cells are blocked for non-specific antibody binding using for example SUPERBLOCK® reagent (blocking buffer) in PBS. The blocking agent is rinsed from the cells with PBS after 1 hour at 37° C., and HCV NS5A monoclonal antibody (Virostat # 1873) is added to each well containing compound. Primary antibody is incubated for 1 hour at 37° C. and rinsed 3 times with PBS containing 0.02% TWEEN-20™ before addition of Horseradish Peroxidase (HRP) conjugated secondary antibody. HRP is incubated for 1 hour at 37° C. and rinsed several times, first with PBS/TWEEN-20™ followed by PBS alone. To quantify peroxidase activity, 3,3′,5,5′-tetramethylbenzidine (TMB) substrate is added to the plate and after 30 minutes, the plates are read in an ELISA plate reader at an OD of 650 nm.
Compound dose response was measured in an 8-point dose curve diluted serially to determine the inhibitory concentration at 50% (EC50 value). […] Ranges of 50% effective concentrations (EC50s) for the representative compounds within the scope of this invention are listed in Tables 1-8. Preferred compounds have 50% effective concentrations at about 30 μM or less, more preferred compounds have 50% effective concentrations at about 5 μM or less, and most preferred compounds have 50% effective concentrations at about 0.5 μM or less.

Setting [2] is: Table 5, aminothiophene compounds, read-out: Kd.
[3] abbreviates: Table 5, NS5A protein, 72-hour incubation.
The mark [4] stands for this setting: Table 1, phenyl benzamide compounds, read-out: Kd.
The mark [5] stands for this setting: Table 1, NS5A protein, 72-hour incubation.
The mark [6] stands for this setting: Table 7, triazinoindole compounds, read-out: Kd.
Where [7] appears, read: Table 7, NS5A protein, 72-hour incubation.
[8] abbreviates: Table 2, NS5A protein, 72-hour incubation.
Where [9] appears, read: Table 6, phenylthiazolylamine compounds, read-out: Kd.
Where [10] appears, read: Table 2, pyrazolopyrimidine compounds, read-out: Kd.
Where [11] appears, read: Table 6, NS5A protein, 72-hour incubation.

Where two headings read alike, the source gives them in different places. Where only a bound is given, the exact number is not on record here.

T1 sequence (Q9WMX2 1712-1972): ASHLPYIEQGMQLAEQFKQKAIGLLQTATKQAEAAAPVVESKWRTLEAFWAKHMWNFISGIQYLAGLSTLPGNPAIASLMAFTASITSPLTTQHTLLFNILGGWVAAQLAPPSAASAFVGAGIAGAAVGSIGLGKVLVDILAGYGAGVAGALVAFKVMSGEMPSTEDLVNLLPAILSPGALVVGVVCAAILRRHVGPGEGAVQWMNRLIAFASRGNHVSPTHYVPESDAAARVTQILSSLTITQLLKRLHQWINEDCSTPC

One may read the Kd as a measure of binding affinity in units of concentration. One may read the EC50 as the concentration needed to bring the measured effect to its halfway point. For the molecule `CCC(=O)Nc1sc(C(=O)Nc2ccc(Cl)cc2)c(C)c1C(=O)OC` [Example 5], on HCV NS4B (setting [2]), the Kd is 2520 nM. Also, the EC50 in assay [1] (setting [3]) is 4.55 µM.

Take `CC(C)c1ccc(NC(=O)c2ccccc2)cc1` [Example 4]: the Kd at HCV NS4B (setting [4]) was determined as 6900 nM. The EC50 in assay [1] (setting [5]) stood at 2.8 µM.

Turning to `CCCCc1c(C)nn(-c2nnc3c4ccccc4n(CCN(CC)CC)c3n2)c1C` [Example 9], the Kd at HCV NS4B (setting [6]) was 1800 nM. In addition, the EC50 in assay [1] (setting [7]) came to 5.2 µM.

Regarding `CCc1c(C)nn(-c2nnc3c4ccccc4n(C)c3n2)c1C` [Example 6], the Kd on HCV NS4B (setting [6]) stood at 7500 nM. Further, the EC50 in assay [1] (setting [7]) is above 25 µM.

Consider `COc1ccc(C(=O)Nc2ccc(N3CCOCC3)c(Cl)c2)cc1Cl` [Example 2], for which the Kd at HCV NS4B (setting [4]) was found to be 2320 nM. Moreover, the EC50 in assay [1] (setting [5]) was 2.5 µM.

`O=C(NCc1cccs1)c1cc2nc(-c3ccco3)cc(C(F)(F)Cl)n2n1` [Example 3] showed a Kd on HCV NS4B of 662 nM. The EC50 in assay [1] (setting [8]) turned out to be 0.63 µM.

As for `COc1ccc(OC)c(Nc2nc(-c3cccs3)cs2)c1` [Example 3], the Kd on HCV NS4B (setting [9]) came out at 570 nM. Further, in assay [1] (72 h), the EC50 worked out at 2.5 µM.

`CCCCc1c(C)nn(-c2nnc3c4ccccc4n(C)c3n2)c1C` [Example 3] yielded a Kd on HCV NS4B of 4300 nM. In assay [1] (setting [7]), the EC50 was 5.8 µM.

As to `CCCCc1c(C)nn(-c2nnc3c4ccccc4n(CCOC)c3n2)c1C` [Example 11], at HCV NS4B (setting [6]), the Kd was 1000 nM. Also, the EC50 in assay [1] (setting [7]) was found to be 7 µM.

With `Cc1nn(-c2nnc3c4ccccc4n(C)c3n2)c(C)c1C` [Example 4], the Kd at HCV NS4B (setting [6]) came to 14000 nM. Besides, in assay [1] (setting [7]), the EC50 is above 25 µM.

In the case of `COC(=O)c1c(NC(=O)C(C)C)sc(C(=O)Nc2ccc(Cl)cc2)c1C` [Example 3], the affinity on HCV NS4B, expressed as Kd, was 842 nM. In addition, the EC50 in assay [1] (setting [3]) is 1.15 µM.

For `CCn1c2ccccc2c2nnc(-n3nc(C)c(-c4ccccc4)c3C)nc21` [Example 2], the Kd at HCV NS4B (setting [6]) came to 2200 nM. The EC50 in assay [1] (setting [7]) amounted to 1 µM.

As for `CCC(C)c1ccc(NC(=O)c2ccccc2F)cc1` (centres unmarked) [Example 1], the Kd on HCV NS4B (setting [4]) came to 2530 nM. For the same molecule, in assay [1] (setting [5]), the EC50 stood at 2.7 µM.

Turning to `CCCc1cc(O)n2nc(-c3ccc(C)cc3)c(C)c2n1` [Example 1], the Kd at HCV NS4B (setting [10]) came to 5960 nM. Also, in assay [1] (setting [8]), the EC50 worked out at 2.2 µM.

Consider `CCn1c2ccccc2c2nnc(-n3nc(C)c(C)c3C)nc21` [Example 5], for which, at HCV NS4B (setting [6]), the Kd amounted to 15600 nM. In assay [1] (setting [7]), the EC50 is above 25 µM.

For the molecule `CCC(=O)Nc1sc(C(=O)Nc2ccc(C)cc2)c(C)c1C(=O)OC` [Example 4], the Kd at HCV NS4B (setting [2]) is 1670 nM. The EC50 in assay [1] (setting [3]) came out at 3.2 µM.

As to `CCCCc1c(C)nn(-c2nnc3c(n2)[nH]c2ccccc23)c1C` [Example 10], the Kd on HCV NS4B (setting [6]) worked out at 3600 nM. The EC50 in assay [1] (setting [7]) is above 25 µM.

Regarding `Cc1nccn1-c1nc(-c2ccc(Cl)cc2)cc(C(F)(F)F)n1` [Example 1], the Kd on HCV NS4B (Table 3, trifluoromethylpyrimidine compound, read-out: Kd) was 2060 nM. In assay [1] (Table 3, NS5A protein, 72-hour incubation), the EC50 was determined as 2.2 µM.

On to `CCCCc1c(C)nn(-c2nnc3c4ccccc4n(CCSC)c3n2)c1C` [Example 12], for which, on HCV NS4B (setting [6]), the Kd was found to be 1800 nM. Moreover, the EC50 in assay [1] (setting [7]) came to 10 µM.

For the molecule `CC(=O)c1ccc(NC(=O)c2cc3c(C)nn(-c4ccccc4)c3s2)cc1` [Example 1], the Kd on HCV NS4B (Table 4, thienopyrazole compound, read-out: Kd) was 1000 nM. In assay [1] (Table 4, NS5A protein, 72-hour incubation), the EC50 turned out to be 3.15 µM.

With `COC(=O)c1c(NC(=O)c2ccc3c(c2)OCO3)sc(C(=O)NC2CCCCC2)c1C` [Example 2], the Kd at HCV NS4B (setting [2]) was found to be 4000 nM. Further, in assay [1] (setting [3]), the EC50 was 7.6 µM.

As for `CC(C)Oc1cccc(C(=O)Nc2ccc(N3CCOCC3)c(Cl)c2)c1` [Example 3], the dissociation constant Kd at HCV NS4B came to 4430 nM. In addition, the EC50 in assay [1] (setting [5]) came to 3.9 µM.

For the molecule `CC(=O)Nc1ccc(Nc2nc(-c3cccs3)cs2)cc1` [Example 2], on HCV NS4B (setting [9]), the Kd is 6200 nM. In addition, the EC50 in assay [1] (setting [11]) came to 11.2 µM.

In the case of `CCCCc1c(C)nn(-c2nnc3c4ccccc4n(CCO)c3n2)c1C` [Example 7], the dissociation constant (Kd) at HCV NS4B (setting [6]) came to 2000 nM. The EC50 in assay [1] (setting [7]) is above 25 µM.

On to `COC(=O)c1c(NC(=O)Cc2cccs2)sc(C(=O)Nc2ccc(Cl)cc2)c1C` [Example 1], for which, on HCV NS4B (setting [2]), the Kd was determined as 304 nM. Also, the EC50 in assay [1] (setting [3]) came to 0.7 µM.

Consider `CCCCc1c(C)nn(-c2nnc3c4ccccc4n(CCN(C(C)C)C(C)C)c3n2)c1C` [Example 8], for which, at HCV NS4B (setting [6]), the Kd was 10300 nM. In assay [1] (setting [7]), the EC50 turned out to be 6.55 µM.

As to `COc1ccc(Cl)cc1Nc1nc(-c2cccnc2)cs1` [Example 1], at HCV NS4B (setting [9]), the Kd is 1700 nM. Also, the half-maximal effective concentration (EC50) in assay [1] (setting [11]) was determined as 1.5 µM.

On to `O=C(NC1CCCC1)c1cc2nc(-c3ccccc3)cc(C(F)(F)F)n2n1` [Example 2], for which the Kd on HCV NS4B (setting [10]) was found to be 4190 nM. In addition, the EC50 in assay [1] (setting [8]) amounted to 1.7 µM.
